In patent publication US20230089073A1 (Carmot Therapeutics, Inc., priority 2021, published 2023):

target: T1, human GLP-1 receptor (Homo sapiens, UniProt P43220); assay: GLP-1R cAMP Assay; assay type: cell-based; details: not given
T1 construct: expressed in transfected cells
Procedure, shortened: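 CHO cells stably overexpressing human GLP-1R, 10,000 cells/well, treated with compound in 20-point dose response in triplicate for 30 min. cAMP accumulation read by enzyme-complementation luminescence after lysis and overnight incubation; dose-response curves fitted.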

T1 sequence (P43220 24-463): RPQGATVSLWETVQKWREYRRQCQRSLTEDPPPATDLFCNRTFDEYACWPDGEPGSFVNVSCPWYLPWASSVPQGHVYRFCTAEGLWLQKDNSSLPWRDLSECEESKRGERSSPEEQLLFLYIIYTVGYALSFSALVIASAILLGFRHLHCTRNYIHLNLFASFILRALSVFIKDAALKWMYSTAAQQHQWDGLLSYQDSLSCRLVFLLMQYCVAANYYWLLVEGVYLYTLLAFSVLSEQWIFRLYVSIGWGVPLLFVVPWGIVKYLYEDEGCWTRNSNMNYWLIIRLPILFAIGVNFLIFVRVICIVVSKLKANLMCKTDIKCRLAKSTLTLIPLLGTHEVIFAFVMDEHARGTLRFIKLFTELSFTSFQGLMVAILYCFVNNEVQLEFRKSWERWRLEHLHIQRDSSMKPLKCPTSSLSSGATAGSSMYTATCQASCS

EC50, < 50 nM:
C[C@H]1C[C@@H](Oc2ccnc(COc3ccc(C#N)cc3F)c2)CCN1Cc1nc2ccc(C(=O)O)cc2n1C[C@@H]1CCO1 [Compound 363]

same assay, conditions: cAMP accumulation in CHO cells stably overexpressing the human GLP-1 receptor; 30 min treatment; HitHunter cAMP kit; read-out: EC50

EC50, < 50 nM:
O=C(O)c1cc(F)c2nc(CN3CCC(Oc4ccnc(COc5ccc(F)cc5Cl)n4)CC3)n(CC3(CF)CC3)c2c1 [Compound 327]
N#Cc1ccc(OCc2nccc(OC3CCN(Cc4nc5c(F)cc(C(=O)O)cc5n4C[C@@H]4CCO4)CC3)n2)c(F)c1 [Compound 328]
O=C(O)c1cc(F)c2nc(CN3CCC(Oc4ccnc(COc5ccc(F)cc5Cl)n4)CC3)n(C[C@@H]3CCO3)c2c1 [Compound 329]
N#CCC1(Cn2c(CN3CCC(Oc4ccnc(COc5ccc(C#N)cc5F)n4)CC3)nc3ccc(C(=O)O)cc32)CC1 [Compound 331]
O=C(O)c1ccc2nc(CN3CCC(Oc4ccnc(COc5ccc(Cl)cc5F)c4)CC3)n(CC34CC(CO3)C4)c2c1 [Compound 333]
N#CCC1(Cn2c(CN3CCC(Oc4ccnc(COc5ccc(Cl)cc5F)c4)CC3)nc3ccc(C(=O)O)cc32)CC1 [Compound 337]
N#CCC1(Cn2c(CN3CCC(Oc4ccnc(COc5ccc(C#N)cc5F)n4)CC3)nc3c(F)cc(C(=O)O)cc32)CC1 [Compound 339]
N#CCC1(Cn2c(CN3CCC(Oc4ccnc(COc5ccc(Cl)cc5Cl)n4)CC3)nc3ccc(C(=O)O)cc32)CC1 [Compound 340]
N#CCC1(Cn2c(CN3CCC(Oc4ccnc(COc5ccc(Cl)cc5Cl)n4)CC3)nc3c(F)cc(C(=O)O)cc32)CC1 [Compound 341]
O=C(O)c1ccc2nc(CN3CCC(Oc4ccnc(COc5ccc(F)cc5C(F)(F)F)n4)CC3)n(C[C@@H]3CCO3)c2c1 [Compound 342]
N#Cc1ccc(OCc2nccc(OC3CCN(Cc4nc5ccc(C(=O)O)cc5n4CC4(CF)CC4)CC3)n2)c(F)c1 [Compound 343]
COCCn1c(CN2CCC(Oc3ccnc(COc4ccc(Cl)cc4F)c3)CC2)nc2c(F)cc(C(=O)O)cc21 [Compound 344]
O=C(O)c1ccc2nc(CN3CCC(Oc4ccnc(COc5ccc(Cl)cc5F)c4)CC3)n(CC3(O)CC3)c2c1 [Compound 345]
N#Cc1ccc(OCc2nc(OC3CCN(Cc4nc5ccc(C(=O)O)cc5n4C[C@@H]4CCO4)CC3)ccc2F)c(F)c1 [Compound 347]
N#CCC1(Cn2c(CN3CCC(Oc4ccnc(COc5ccc(F)cc5C#N)n4)CC3)nc3ccc(C(=O)O)cc32)CC1 [Compound 348]
N#CCC1(Cn2c(CN3CCC(Oc4ccnc(COc5ccc(F)cc5C#N)n4)CC3)nc3c(F)cc(C(=O)O)cc32)CC1 [Compound 349]
O=C(O)c1ccc2nc(CN3CCC(Oc4ccnc(COc5ccc(Cl)cc5)c4)CC3)n(C[C@@H]3CCO3)c2c1 [Compound 352]
C[C@H]1C[C@@H](Oc2ccnc(COc3ccc(F)cc3C#N)n2)CCN1Cc1nc2ccc(C(=O)O)cc2n1CC1(CC#N)CC1 [Compound 353]
COCCC1(Cn2c(CN3CCC(Oc4ccnc(COc5ccc(Cl)cc5F)c4)CC3)nc3ccc(C(=O)O)cc32)CC1 [Compound 354]
O=C(O)c1ccc2nc(CN3CCC(Oc4ccnc(COc5ccc(C(F)(F)F)cc5F)c4)CC3)n(C[C@@H]3CCO3)c2c1 [Compound 356]
O=C(O)c1ccc2nc(CN3CCC(Oc4ccnc(COc5ccc(F)cc5C(F)F)c4)CC3)n(C[C@@H]3CCO3)c2c1 [Compound 357]
N#Cc1ccc(OCc2cc(OC3CCN(Cc4nc5ccc(C(=O)O)cc5n4C[C@@H]4CCO4)CC3)ccn2)c(Cl)c1 [Compound 358]
N#Cc1ccc(OCc2cc(OC3CCN(Cc4nc5c(F)cc(C(=O)O)cc5n4C[C@@H]4CCO4)CC3)ccn2)c(Cl)c1 [Compound 359]
N#CCC1(Cn2c(CN3CCC(Oc4ccnc(COc5ccc(C(F)F)cc5F)c4)CC3)nc3ccc(C(=O)O)cc32)CC1 [Compound 362]
N#Cc1ccc(OCc2cc(OC3CCN(Cc4nc5c(F)cc(C(=O)O)cc5n4C[C@@H]4CCO4)CC3)ccn2)c(F)c1 [Compound 365]
C[C@H]1C[C@@H](Oc2ccnc(COc3ccc(C#N)cc3Cl)c2)CCN1Cc1nc2ccc(C(=O)O)cc2n1C[C@@H]1CCO1 [Compound 366]
N#Cc1ccc(OCc2nccc(OC3CCN(Cc4nc5ccc(C(=O)O)cc5n4C[C@@H]4CCO4)CC3)n2)c(Cl)c1 [Compound 369]
O=C(O)c1ccc2nc(CN3CCC(Oc4ccnc(COc5ccc(F)cc5Cl)n4)CC3)n(C[C@@H]3CCO3)c2n1 [Compound 370]
O=C(O)c1ccc2nc(CN3CCC(Oc4ccnc(COc5ccc(C(F)(F)F)cc5F)n4)CC3)n(C[C@@H]3CCO3)c2n1 [Compound 371]
N#Cc1ccc(OCc2nccc(OC3CCN(Cc4nc5ccc(C(=O)O)nc5n4C[C@@H]4CCO4)CC3)n2)c(F)c1 [Compound 373]
N#Cc1ccc(OCc2ncc(F)c(OC3CCN(Cc4nc5ccc(C(=O)O)cc5n4C[C@@H]4CCO4)CC3)n2)c(F)c1 [Compound 374]
C[C@H]1C[C@@H](Oc2ccnc(COc3ccc(C#N)cc3F)n2)CCN1Cc1nc2ccc(C(=O)O)nc2n1C[C@@H]1CCO1 [Compound 375]
C[C@H]1C[C@@H](Oc2ccnc(COc3ccc(C(F)(F)F)cc3F)n2)CCN1Cc1nc2ccc(C(=O)O)cc2n1C[C@@H]1CCO1 [Compound 376]
C[C@H]1C[C@@H](Oc2ccnc(COc3ccc(C(F)(F)F)cc3F)n2)CCN1Cc1nc2ccc(C(=O)O)nc2n1C[C@@H]1CCO1 [Compound 377]
O=C(O)c1ccc2nc(CN3CCC(Oc4ccnc(COc5ccc(Cl)cc5F)c4)CC3)n(C[C@@H]3CCO3)c2n1 [Compound 378]
N#Cc1ccc(OCc2cc(OC3CCN(Cc4nc5ccc(C(=O)O)nc5n4C[C@@H]4CCO4)CC3)ccn2)c(F)c1 [Compound 379]
O=C(O)c1ccc2nc(CN3CCC(Oc4cc(COc5ccc(Cl)cc5F)ncc4F)CC3)n(C[C@@H]3CCO3)c2c1 [Compound 380, (S)-2-((4-((2-((4-chloro-2-fluorophenoxy)methyl)-5-fluoropyridin-4-yl)oxy)piperidin-1-yl)methyl)-1-(oxetan-2-ylmethyl)-1H-benzo[d]imidazole-6-carboxylic acid]
O=C(O)c1ccc2nc(CN3CCC(Oc4ccnc(COc5ccc(C6CC6)cc5F)n4)CC3)n(C[C@@H]3CCO3)c2c1 [Compound 475, 2-{[4-({2-[(4-cyclopropyl-2-fluorophenoxy)methyl]pyrimidin-4-yl}oxy)piperidin-1-yl]methyl}-1-{[(2S)-oxetan-2-yl]methyl}-1H-1,3-benzodiazole-6-carboxylic acid]
N#Cc1cc(C2CC2)ccc1OCc1nccc(OC2CCN(Cc3nc4ccc(C(=O)O)cc4n3C[C@@H]3CCO3)CC2)n1 [Compound 476, 2-{[4-({2-[(2-cyano-4-cyclopropylphenoxy)methyl]pyrimidin-4-yl}oxy)piperidin-1-yl]methyl}-1-{[(2S)-oxetan-2-yl]methyl}-1H-1,3-benzodiazole-6-carboxylic acid]
C[C@H]1C[C@@H](Oc2ccnc(COc3ccc(C#N)cc3Cl)n2)CCN1Cc1nc2ccc(C(=O)O)cc2n1C[C@@H]1CCO1 [Compound 477, 2-{[(2S,4S)-4-({2-[(2-chloro-4-cyanophenoxy)methyl]pyrimidin-4-yl}oxy)-2-methylpiperidin-1-yl]methyl}-1-{[(2S)-oxetan-2-yl]methyl}-1H-1,3-benzodiazole-6-carboxylic acid]
N#Cc1ccc(OCc2cc(OC3CCN(Cc4nc5c(F)cc(C(=O)O)cc5n4C[C@@H]4CCO4)CC3)c(F)cn2)c(F)c1 [Compound 478, 2-{[4-({2-[(4-cyano-2-fluorophenoxy)methyl]-5-fluoropyridin-4-yl}oxy)piperidin-1-yl]methyl}-4-fluoro-1-{[(2S)-oxetan-2-yl]methyl}-1H-1,3-benzodiazole-6-carboxylic acid]
O=C(O)c1ccc2nc(CN3CCC(Oc4ccnc(COc5ccc(F)cc5F)n4)CC3)n(C[C@@H]3CCO3)c2c1 [Compound 479, 2-{[4-({2-[(2,4-difluorophenoxy)methyl]pyrimidin-4-yl}oxy)piperidin-1-yl]methyl}-1-{[(2S)-oxetan-2-yl]methyl}-1H-1,3-benzodiazole-6-carboxylic acid]
N#Cc1cc(Cl)ccc1OCc1nccc(OC2CCN(Cc3nc4ccc(C(=O)O)cc4n3C[C@@H]3CCO3)CC2)n1 [Compound 481, 2-{[4-({2-[(4-chloro-2-cyanophenoxy)methyl]pyrimidin-4-yl}oxy)piperidin-1-yl]methyl}-1-{[(2S)-oxetan-2-yl]methyl}-1H-1,3-benzodiazole-6-carboxylic acid]
O=C(O)c1cc(F)c2nc(CN3CCC(Oc4ccnc(COc5ccc(F)cc5F)n4)CC3)n(C[C@@H]3CCO3)c2c1 [Compound 482, 2-{[4-({2-[(2,4-difluorophenoxy)methyl]pyrimidin-4-yl}oxy)piperidin-1-yl]methyl}-4-fluoro-1-{[(2S)-oxetan-2-yl]methyl}-1H-1,3-benzodiazole-6-carboxylic acid]
